Patent US8435957B2, “Use of lignan compound for anti-wrinkle treatment” (Biocare Co., Ltd., priority 2007, dated 2013)

Assays:
[1] = test system: human normal fibroblasts; assay: MTT assay, cell proliferation effect in fibroblasts; format: cell-based; conditions: 48 h serum-free culture, untreated medium as control
Description: In order to examine a cell proliferation effect proving the effect of reducing skin wrinkles, an MTT assay (3-(4,5-dimethylthiazol-2-yl)-2,5-diphenyl tetrazolium bromide reduction method) was carried out using fibroblasts.
First, human normal fibroblasts were plated into a 96-well plate at a concentration of 2×10^5 cells/well and primarily cultured in 10% FBS (fetal bovine serum)-containing DMEM medium in conditions of 37° C. and 5% CO2 for 24 hours. After the primary culture, the cells were treated with varying concentrations of the inventive sample. Then, the medium was replaced with a serum-free medium, and the cells were secondarily cultured for 48 hours. After the secondary culture step, 100 μl of MTT solution was added to the medium. Then, the resulting solution was left to stand for 4 hours, and then the medium was removed. 100 μl of dimethyl sulfoxide solution was added to each well and stirred for 20 minutes, and then the absorbance of each well at 540 nm was measured with a microplate reader.
According to the method of Example 2, the cell proliferation effects of 75% methanol extract of the aril of nutmeg and fragrin A and austobailignan 7 which are isolated and purified thereof were measured. In the MTT assay, a culture medium not treated with the sample was used as a control group and measured for absorbance, and the analysis results are shown in Table 3 below.

[2] = test system: matrix metalloproteinase-1 (MMP-1); assay: Western blot of matrix metalloproteinase-1 (MMP-1) expression in fibroblasts radiated with UV light; format: cell-based, human; conditions: for inhibition of expression of matrix metalloproteinase-1: UV 20 J/cm^2, given as 'higher than the negative control'; for expression of matrix metalloproteinase-1, result in words: 3, 5 and 10 μM, versus UV 20 J/cm^2 positive control, FIG. 3, FIG. 4; for inhibition at 3 µM / inhibition at 5 µM / inhibition at 10 µM: Homo sapiens, Fibroblast, light or radiation study, compared with UV 20 J/cm^2 treated positive control group, read-out: matrix metalloproteinase-1 (MMP-1) inhibitory activity effect
Description: Fibroblasts were cultured in a 60-mm dish at a concentration of 2×10^5 cells/ml to a confluence of about 85%. Before UV radiation, the medium was removed, and the cells were washed with PBS to remove a serum component therefrom, and then radiated with UV light at a dose of 20 J/cm^2. After the fibroblast cells were radiated with UV light, the cells were treated with each of the samples and cultured with serum free DMEM for 48 hours.
In order to measure the expression levels of matrix metalloproteinase-1 (MMP-1), Western blot was used, and the amount of total protein in the medium containing the fibroblasts cultured therein was quantified using the Bradford method.
The extracted protein was electrophoresed on 10% SDS-polyacrylamide gel, and then transferred to a nitrocellulose membrane. The membrane was blocked with 5% skim milk at room temperature for 1 hour in order to prevent it from being contaminated with other unknown proteins. Primary antibody to matrix metalloproteinase-1 was diluted in a blocking solution at a ratio of 1:1000 and allowed to react with the membrane at room temperature for 2 hours. After the primary antibody reaction, the membrane was washed three times with Tris-buffer saline Tween 20 (TBST) with shaking for 10 minutes each time. Secondary antibodies recognizing the primary antibodies to matrix metalloproteinase-1 was diluted in 5% skim milk at a ratio of 1:1000 and allowed to react with the membrane at room temperature for 1 hour. Then, the membrane was washed three times with tris-buffer saline Tween 20 with shaking for 10 minutes each time in the same manner as in the case of the primary antibody reaction, and then was developed by chemiluminescence.

[3] = test system: hairless mouse (Skh; HR-1); assay: In vivo anti-wrinkle effect, skin application, skin replica; conditions: applied to skin: 50 μl of 6% (w/v) nutmeg extract or 20 mM macelignan; versus UV positive group; FIG. 7
Description: (§1) 6-week hairless mouse (Skh; HR-1) have a quarantine period for 1 week before experiment, and cared maintaining temperature with 23±3° C., relative humidity with 50±5° C., and 12 hours of day/night cycle (07:00-19:00/day time). They were fed with feed for mouse, and tap water. UV irradiations were performed 3 times per week in the same time, the amount of the UV irradiations were 50 mJ/cm^2 on 1st week, 100 mJ/cm^2 on 2nd week, 200 mJ/cm^2 on 3rd week, and 250 mJ/cm^2 on 4th and after 4th weeks. The groups were divided into 4 groups. Those were control, UV control, UV/nutmeg and UV/macelignan.
50 μl of 6% (w/v) of nutmeg extract and 20 mM macelignan solution were applied for the experiment. For the experiment, nutmeg extract and macelignan were disolved in ethanol:polyethylene glycol (7:3, v/v).
In FIG. 7, A is the normal group, B is the UV irradiated group, C is the nutmeg applying group, and D is the macelignan applying group.

[4] = test system: hairless mouse (Skh; HR-1); assay: In vivo anti-wrinkle effect, oral administration, skin replica; conditions: oral: 200 mg/kg nutmeg or 20 mg/kg macelignan; versus UV positive group; FIG. 8
Description: as §1, with “UV/macelignan. 200 mg/kg of nutmeg and 20 mg/kg of macelignan were administered respectively by oral. For the experiment, nutmeg extract and macelignan were disolved in 0.25% CMC (carboxyl methyl celluose) solution.” for “UV/macelignan.”
In FIG. 8, A is the normal group, B is the UV irradiated group, C is the nutmeg administering group, and D is the macelignan administering group.

SMILES | Proliferation effect (%) ([1]; 3 μg/ml) | Proliferation effect (%) ([1]; 5 μg/ml) | Proliferation effect (%) ([1]; 10 μg/ml) | inhibition of expression of matrix metalloproteinase-1 ([2]; 10 μM) [%] | expression of matrix metalloproteinase-1, result in words [2] | inhibition at 3 µM [2] [%] | inhibition at 5 µM [2] [%] | inhibition at 10 µM ([2]; 10 μM) [%] | effect on reducing wrinkle (skin replica), result in words [3] | effect on inhibiting wrinkle (skin replica), result in words [4] | inhibition of expression of matrix metalloproteinase-1 ([2]; 10 μg/ml) [%]
COc1cc([C@@H]2OC(c3ccc4c(c3)OCO4)[C@@H](C)[C@@H]2C)ccc1O (some centres unmarked) [austobailignan 7, austrobailignan-7] | 104 | 105 | 110 | 65 | inhibited the expression of matrix metalloproteinase-1 with dose-dependent manners | – | – | – | – | – | –
C=CCc1cc(OC)c(OC(C)Cc2ccc(O)c(OC)c2)c(OC)c1 (centres unmarked) [fragrin A, 2-(4-allyl-2,6-dimethoxyphenoxy)-1-(4-hydroxy-3-methoxyphenyl)-propane] | 101 | 104 | 108 | 65 | inhibited the expression of matrix metalloproteinase-1 with dose-dependent manners | – | – | – | – | – | –
C/C=C/c1cc(OC)c2c(c1)[C@@H](C)C(c1ccc3c(c1)OCO3)O2 (some centres unmarked) [licarin E] | – | – | – | – | – | 35 | 47 | 73 | – | – | –
COc1cc(C[C@H](C)[C@H](C)Cc2ccc3c(c2)OCO3)ccc1O [macelignan] | – | – | – | – | – | 31 | 42 | 63 | inhibited wrinkle | inhibited wrinkle | –
O=C1O[C@H]([C@@H](O)CO)C(O)=C1O [vitamin-C, reference compound] | – | – | – | 20 | – | – | – | – | – | – | 20
